Results on 41 compounds are retold here after US6436933B1 (priority 2001, dated 2002).

T1 sequence (P15917 34-809 limits assumed): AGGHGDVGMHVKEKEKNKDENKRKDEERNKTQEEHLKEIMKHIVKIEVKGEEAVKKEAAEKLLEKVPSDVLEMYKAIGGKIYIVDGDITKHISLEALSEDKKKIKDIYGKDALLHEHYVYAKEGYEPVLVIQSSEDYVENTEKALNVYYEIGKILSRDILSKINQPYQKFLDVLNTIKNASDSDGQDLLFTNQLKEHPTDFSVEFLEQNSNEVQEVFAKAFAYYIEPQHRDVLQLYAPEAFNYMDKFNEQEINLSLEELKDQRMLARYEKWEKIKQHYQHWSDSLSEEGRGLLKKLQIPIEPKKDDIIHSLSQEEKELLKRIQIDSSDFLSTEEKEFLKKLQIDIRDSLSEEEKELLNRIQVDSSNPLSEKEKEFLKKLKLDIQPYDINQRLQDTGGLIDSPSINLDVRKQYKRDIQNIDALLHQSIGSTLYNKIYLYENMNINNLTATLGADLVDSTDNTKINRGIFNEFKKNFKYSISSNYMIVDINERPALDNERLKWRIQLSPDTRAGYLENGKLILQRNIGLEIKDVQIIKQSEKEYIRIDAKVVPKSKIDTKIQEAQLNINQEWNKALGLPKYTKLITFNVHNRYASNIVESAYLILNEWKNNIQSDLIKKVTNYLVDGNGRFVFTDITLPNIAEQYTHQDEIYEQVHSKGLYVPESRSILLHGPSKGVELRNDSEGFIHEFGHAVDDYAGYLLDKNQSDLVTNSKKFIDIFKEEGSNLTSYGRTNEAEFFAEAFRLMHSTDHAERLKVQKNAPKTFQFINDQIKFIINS

One test relates to B anthracis.
Test: not given
The following applies: monkey, in vivo; cited from earlier work.
In the case of `O=C(O)c1cn(C2CC2)c2cc(N3CCNCC3)c(F)cc2c1=O` [ciprofloxacin], the “monkeys that survived a lethal aerosol challenge” value was 8 of 9.

penicillin: the “monkeys that survived a lethal aerosol challenge” value is 7 of 10.

A further test concerns the target T1, Anthrax Lethal Factor (ALF) (Bacillus anthracis, UniProt P15917).
Test: not given
Type of test: biochemical.
Conditions: not given
For the compound `O=c1c(Cc2ccc(-c3ccccc3)cc2)nc(-c2ccccc2)c(-c2ccccc2)n1O` [Compound 11, 3-(4′-phenyl)-benzyl-5,6diphenyl-1-hydroxy-2-oxo-1,2-dihydropyrazine], the “Activity by Gel, % @ 100” value was determined as 2% @ 100. Regarding `CC(C)Cc1nc(-c2ccccc2)cn(O)c1=O` [Compound 4, 1-hydroxy-3-(2-methylpropyl)-5-phenylhydropyrazin-2-one], the “Activity by Gel, % @ 200” value worked out at 0% @ 200. Same read-out and setting: in the case of `CC(C)c1nc(-c2ccccc2)c(-c2ccccc2)n(O)c1=O` [Compound 1, 3-isoprpyl-5,6dipheny-1-1-hydroxy-2-oxo-1,2-dihydropyrazine] it was 0% @ 200; in that of `Cc1c(-c2ccccc2)nc(CC(C)C)c(=O)n1O` [Compound 3, 1-hydroxy-6-methyl-3-(2-methylpropyl)-5-phenylhydropyrazin-2-one], 0% @ 200.

As to `CCc1nc(C(C)C)c(=O)n(O)c1CC` [Compound 2, 3-isopropyl-5,6diethyl-1-hydroxy-2-oxo-1,2dihydropyrazine], the “Activity by Gel, % @ 200” value came out at 0% @ 200.

Consider `O=c1c(Cc2ccccc2)nc(-c2ccccc2)c(-c2ccccc2)n1O` [Compound 5, 1-hydroxy-5,6-diphenyl-3-benzylhydropyrazin-2-one], for which the “Activity by Gel, % @ 200” value stood at 45% @ 200.

The target in the next test is T1, Anthrax Lethal Factor (ALF). Kind of test: biochemical. Type of test: biochemical.
Conditions: not given
Turning to `O=c1c(Cc2ccc(-c3ccccc3)cc2)nc(-c2ccc3c(c2)OCO3)cn1O` [Compound 32, 5-(2H-benzo[d]1,3-dioxolen-5-yl)-1-hydroxy-3-[(4-phenylphenyl)methyl] hydropyrazin-2-one], the “Activity by plate, % @ 100” value was found to be 40% @ 100. Regarding `CCCCCc1ccc(-c2cn(O)c(=O)c(Cc3ccc(-c4ccccc4)cc3)n2)cc1` [Compound 47, 1-hydroxy-5-(4-pentylphenyl)-3-[(4-phenylphenyl)methyl]hydropyrazin-2-one], the “Activity by plate, % @ 100” value is reported as 39% @ 100. Consider `Cc1c(-c2ccccc2)nc(Cc2ccccc2)c(=O)n1O` [Compound 6, 1-hydroxy-6-methyl-5-phenyl-3-benzylhydropyrazin-2-one], for which inhibition was half-maximal at 70 µM (IC50). As to `O=c1c(Cc2ccc(-c3ccccc3)cc2)nc(-c2ccc(-c3ccccc3)cc2)cn1O` [Compound 28, 1-hydroxy-5-(4-phenylphenyl)-3-[(4-phenylphenyl)methyl]hydropyrazin-2-one], it took 12 µM to reach half-maximal inhibition (IC50).

Consider `Cc1cc(-c2cn(O)c(=O)c(Cc3ccccc3)n2)ccc1Cl` [Compound 40, 5-(4-chloro-3-methylphenyl)-1-hydroxy-3-benzylhydropyrazin-2-one], for which the “Activity by plate, % @ 100” value is reported as 18% @ 100.

Regarding `O=c1c(Cc2ccccc2)nc(-c2ccc3c(c2)OCO3)cn1O` [Compound 22, 5-(2H-benzo[d]1,3-dioxolen-5-yl)-1-hydroxy-3-benzylhydropyrazin-2-one], the “Activity by plate, % @ 100” value is given as 39% @ 100. As for `O=c1c(Cc2ccccc2)nc(-c2ccc(N3CCOCC3)cc2)cn1O` [Compound 14, 1-hydroxy-5-(4-morpholin-4-ylphenyl)-3-benzylhydropyrazin-2-one], the “Activity by plate, % @ 100” value turned out to be 0% @ 100. The same measure, in the same setting: in the case of `O=c1c(Cc2ccccc2)nc(-c2ccc(Br)cc2)cn1O` [Compound 20, 5-(4-bromophenyl)-1-hydroxy-3-benzylhydropyrazin-2-one] it was 63% @ 100. In turn, `O=c1c(Cc2ccccc2)nc(-c2ccc(C3CCCCC3)cc2)cn1O` [Compound 18, 5-(4-cyclohexylphenyl)-1-hydroxy-3-benzylhydropyrazin-2-one] returned a concentration for half-maximal inhibition (IC50) of 8 µM. Consider `Cc1cc(-c2cn(O)c(=O)c(Cc3ccc(-c4ccccc4)cc3)n2)ccc1Cl` [Compound 45, 5-(4-chloro-3-methylphenyl)-1-hydroxy-3-[(4-phenylphenyl)methyl] hydropyrazin-2-one], for which the “Activity by plate, % @ 100” value was determined as 47% @ 100. As for `O=c1c(Cc2ccccc2)nc(-c2ccc(Cl)c(Cl)c2)cn1O` [Compound 39, 5-(3,4-dichlorophenyl)-1-hydroxy-3-benzylhydropyrazin-2-one], the “Activity by plate, % @ 100” value was 45% @ 100. As to `N#Cc1ccc(-c2cn(O)c(=O)c(Cc3ccc(-c4ccccc4)cc3)n2)cc1` [Compound 33, 4-{4-hydroxy-5-oxo-6-[(4-phenylphenyl)methyl]-4-hydropyrazin-2-yl} benzenecarbonitrile], the “Activity by plate, % @ 100” value stood at 51% @ 100. The compound `O=c1c(Cc2ccccc2)nc(-c2ccccc2)cn1O` [Compound 7, 1-hydroxy-5-phenyl-3-benzylhydropyrazin-2-one] returned a half-maximal inhibitory concentration (IC50) of 15 µM. As for `O=c1c(Cc2ccccc2)nc(-c2ccc(-c3ccccc3)cc2)cn1O` [Compound 17, 1-hydroxy-3-benzyl-5-(4-phenylphenyl)hydropyrazin-2-one], the “Activity by plate, % @ 100” value is 41% @ 100. Same read-out and setting: in the case of `N#Cc1ccc(-c2cn(O)c(=O)c(Cc3ccccc3)n2)cc1` [Compound 24, 4-[4-hydroxy-5-oxo-6-benzyl-4-hydropyrazin-2-yl]benzenecarbonitrile] it was 41% @ 100. For the compound `Cc1ccc(-c2cn(O)c(=O)c(Cc3ccccc3)n2)cc1` [Compound 41, 1-hydroxy-5-(4-methylphenyl)-3-benzylhydropyrazin-2-one], the “Activity by plate, % @ 100” value was 13% @ 100.

On to `O=c1c(Cc2ccc(-c3ccccc3)cc2)nc(-c2ccc(N3CCOCC3)cc2)cn1O` [Compound 26, 1-hydroxy-5-(4-morpholin-4-ylphenyl)-3-[(4-phenylphenyl)methyl] hydropyrazin-2-one], for which the “Activity by plate, % @ 100” value is given as 37% @ 100. On to `O=c1c(Cc2ccccc2)nc(-c2cccs2)cn1O` [Compound 16, 1-hydroxy-3-benzyl-5-(2-thienyl)hydropyrazin-2-one], for which the “Activity by plate, % @ 100” value is on record as 33% @ 100.

With `O=c1c(Cc2ccc(-c3ccccc3)cc2)nc(-c2ccc(F)cc2)cn1O` [Compound 27, 5-(4-fluorophenyl)-1-hydroxy-3-[(4-phenylphenyl)methyl]hydropyrazin-2-one], the “Activity by plate, % @ 100” value was 12% @ 100. As for `O=c1c(Cc2ccccc2)nc(-c2ccc(O)cc2)cn1O` [Compound 21, 1-hydroxy-5-(4-hydroxyphenyl)-3-benzylhydropyrazin-2-one], the “Activity by plate, % @ 100” value was 7% @ 100. In turn, `O=c1c(Cc2ccc(-c3ccccc3)cc2)nc(-c2ccc(Br)cc2)cn1O` [Compound 31, 5-(4-bromophenyl)-1-hydroxy-3-[(4-phenylphenyl)methyl]hydropyrazin-2-one] registered an IC50 of 5 µM. Turning to `O=c1c(Cc2ccccc2)nc(-c2ccc(F)cc2)cn1O` [Compound 15, 5-(4-fluorophenyl)-1-hydroxy-3-benzylhydropyrazin-2-one], the “Activity by plate, % @ 100” value is 33% @ 100. With `O=c1c(Cc2ccc(-c3ccccc3)cc2)nc(-c2ccc(C(F)(F)F)cc2)cn1O` [Compound 48, 1-hydroxy-3-[(4-phenylphenyl)methyl]-5-[4-(trifluoromethyl)phenyl] hydropyrazin-2-one], the “Activity by plate, % @ 100” value is 25% @ 100. As to `Cc1ccc(-c2cn(O)c(=O)c(Cc3ccc(-c4ccccc4)cc3)n2)cc1` [Compound 46, 1-hydroxy-5-(4-methylphenyl)-3-[(4-phenylphenyl)methyl]hydropyrazin-2-one], the “Activity by plate, % @ 100” value is listed as 46% @ 100. On to `O=c1c(Cc2ccccc2)nc(-c2ccc(C(F)(F)F)cc2)cn1O` [Compound 43, 1-hydroxy-3-benzyl-5-[4-(trifluoromethyl)phenyl]hydropyrazin-2-one], for which the “Activity by plate, % @ 100” value is 0% @ 100. With `O=c1c(Cc2ccccc2)nc(-c2ccc([N+](=O)[O-])cc2)cn1O` [Compound 23, 1-hydroxy-5-(4-nitrophenyl)-3-benzylhydropyrazin-2-one], the “Activity by plate, % @ 100” value was found to be 7% @ 100.

Regarding `CC(=O)Nc1ccc(-c2cn(O)c(=O)c(Cc3ccccc3)n2)cc1` [Compound 25, N-{4-[4-hydroxy-5-oxo-6-benzyl-4-hydropyrazin-2-yl]phenyl}acetamide], the “Activity by plate, % @ 100” value was 19% @ 100. `O=c1c(Cc2ccccc2)nc(-c2ccccc2)c(-c2ccccc2)n1O` [Compound 5, 1-hydroxy-5,6-diphenyl-3-benzylhydropyrazin-2-one] had an IC50 of 6 µM. Regarding `O=c1c(Cc2ccc(-c3ccccc3)cc2)nc(-c2ccc(Cl)c(Cl)c2)cn1O` [Compound 44, 5-(3,4-dichlorophenyl)-1-hydroxy-3-[(4-phenylphenyl)methyl] hydropyrazin-2-one], the “Activity by plate, % @ 100” value is 45% @ 100. `O=c1c(Cc2ccccc2)nc(-c2ccc3ccccc3c2)cn1O` [Compound 19, 1-hydroxy-5-(2-naphthyl)-3-benzylhydropyrazin-2-one]: the “Activity by plate, % @ 100” value amounted to 59% @ 100. Regarding `Cc1c(-c2ccccc2)nc(Cc2ccc(-c3ccccc3)cc2)c(=O)n1O` [Compound 12, 3-(4′-phenyl)-benzyl-5-phenyl-6-methyl-1-hydroxy-2-oxo-1,2-dihydropyrazine], inhibition was half-maximal at 15 µM (IC50).

Turning to `O=c1c(Cc2ccc(-c3ccccc3)cc2)nc(-c2ccc(C3CCCCC3)cc2)cn1O` [Compound 29, 5-(4-cyclohexylphenyl)-1-hydroxy-3-[(4-phenylphenyl)methyl] hydropyrazin-2-one], the “Activity by plate, % @ 100” value is given as 59% @ 100. Consider `CCCCCc1ccc(-c2cn(O)c(=O)c(Cc3ccccc3)n2)cc1` [Compound 42, 1-hydroxy-5-(4-pentylphenyl)-3-benzylhydropyrazin-2-one], for which the “Activity by plate, % @ 100” value is 16% @ 100. Regarding `O=c1c(Cc2ccc(-c3ccccc3)cc2)nc(-c2ccc3ccccc3c2)cn1O` [Compound 30, 1-hydroxy-5-(2-naphthyl)-3-[(4-phenylphenyl)methyl]hydropyrazin-2-one], the “Activity by plate, % @ 100” value is given as 54% @ 100.
